Measured values published in patent publication US20260008750A1, “COMPOUNDS, COMPOSITIONS, AND METHODS FOR REDUCING PRODUCTION OF TRIMETHYLAMINE” (The Cleveland Clinic Foundation, priority 2022, published 2026).
Counter-ions that a name gives are not always drawn.

These molecules were tested against recombinant CutC/D (choline TMA lyase) (Proteus mirabilis, UniProt B4EYG1) (assay: Choline TMA lyase enzymatic activity assay (d9-choline to d9-TMA) in clarified lysate). Details: clarified lysate 5 mg/mL of E. coli expressing cutC/cutD; 300 μM d9-choline; 2 hours at 22° C.; d9-TMA by mass spectrometry.
Sequence of recombinant CutC/D (choline TMA lyase) (B4EYG1 1-1142): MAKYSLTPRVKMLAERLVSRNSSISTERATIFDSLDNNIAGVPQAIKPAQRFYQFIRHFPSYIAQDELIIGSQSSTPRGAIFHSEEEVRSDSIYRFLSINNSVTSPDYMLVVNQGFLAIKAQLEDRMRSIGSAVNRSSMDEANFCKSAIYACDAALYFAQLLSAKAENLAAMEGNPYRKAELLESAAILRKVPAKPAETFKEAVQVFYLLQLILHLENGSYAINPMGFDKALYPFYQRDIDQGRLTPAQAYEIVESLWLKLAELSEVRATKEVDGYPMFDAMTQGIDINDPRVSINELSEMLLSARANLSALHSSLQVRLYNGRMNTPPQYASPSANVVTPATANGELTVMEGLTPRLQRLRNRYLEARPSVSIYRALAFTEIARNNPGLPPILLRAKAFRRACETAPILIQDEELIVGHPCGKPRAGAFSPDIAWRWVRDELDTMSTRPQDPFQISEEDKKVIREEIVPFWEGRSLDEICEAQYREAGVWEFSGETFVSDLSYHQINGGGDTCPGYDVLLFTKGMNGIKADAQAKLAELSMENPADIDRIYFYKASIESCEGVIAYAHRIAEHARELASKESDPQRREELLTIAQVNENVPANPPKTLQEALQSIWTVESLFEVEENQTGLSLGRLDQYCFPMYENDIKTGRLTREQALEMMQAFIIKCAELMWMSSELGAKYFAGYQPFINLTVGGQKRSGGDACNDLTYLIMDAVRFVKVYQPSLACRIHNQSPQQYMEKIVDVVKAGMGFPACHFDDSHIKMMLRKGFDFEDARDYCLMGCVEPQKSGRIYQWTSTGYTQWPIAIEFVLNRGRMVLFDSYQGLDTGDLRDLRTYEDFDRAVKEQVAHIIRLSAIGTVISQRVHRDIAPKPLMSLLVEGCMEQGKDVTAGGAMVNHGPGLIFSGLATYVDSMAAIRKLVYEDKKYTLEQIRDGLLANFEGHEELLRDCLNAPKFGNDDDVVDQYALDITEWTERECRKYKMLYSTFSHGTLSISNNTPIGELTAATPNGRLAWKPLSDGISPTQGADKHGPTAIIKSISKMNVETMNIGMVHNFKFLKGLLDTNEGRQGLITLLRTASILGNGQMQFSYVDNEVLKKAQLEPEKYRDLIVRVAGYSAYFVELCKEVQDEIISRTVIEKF
Assay type: biochemical, P. mirabilis
Method: Full-length, recombinant CutC/D was expressed through the use of competent E. coli cells transformed with the expression plasmids encoding for the cutC and cutD genes from P. mirabilis as described (Wang Z et al., Cell 2015 Dec. 17; 163(7):1585-95). CutC/D over-expressing cells were grown in nutrient-rich LB medium with the addition of ampicillin (100 μg/mL). The cell pellets were kept on ice and re-suspended in the lysis buffer: 200 mM HEPES, 50 mM NaCl, 10 mM MgCl2, pH 8.0. Clarified lysate was aliquoted and flash frozen for storage at −80° C. until use.
Choline TMA lyase enzymatic activity assays were conducted to measure the conversion of isotope-labeled do-choline to do-TMA. Upon thawing an aliquot of frozen clarified lysate on ice and gentle mixing, clarified lysate was diluted to 5 mg/mL in lysis buffer and the necessary co-factors were added (final concentration: 1 mM SAM, 10 mM NaDT, and 2 mM NADH). Potential inhibitor compounds (typically dissolved in H2O) were serially diluted (10-fold) and added to individual reaction mixtures (done in triplicate). The mixture was then allowed to incubate for at least 15 minutes at 22° C. before the addition of substrate (300 μM final do-choline) to initiate the reaction, which was carried out for 2 hours at room temperature (22° C.) in the dark in gas tight sealed reaction vials. The reactions were quenched with the addition of 200 μL of 1 M NaOH and 0.5 μM of the internal standard ([^13C3^15N1]TMA), vortexing and placement in ice. d9-TMA production was quantified using mass spectrometry by measuring the peak area ratio of the precursor to product ion transition of d9-TMA (m/z 69→49) to the internal standard [^13C3^15N1]TMA (m/z 64→47).
With `C[N+](C)(CF)CCOC(=O)CN` [Compound 1, 2-(2-Aminoacetoxy)-N-(fluoromethyl)-N,N-dimethylethanaminium dibromide] the IC50 was 0.0032 µM.
`CC(C)[C@H](N)C(=O)OCC[N+](C)(C)CF` [Compound 2, (S)-2-((2-Amino-3-methylbutanoyl)oxy)-N-(fluoromethyl)-N,N-dimethylethanaminium dibromide] gave an IC50 of 0.052 µM.
`C[C@H](N)C(=O)OCC[N+](C)(C)CF` [Compound 3, (S)-2-((2-Aminopropanoyl)oxy)-N-(fluoromethyl)-N,N-dimethylethanaminium dibromide] was tested, and the IC50 was 0.031 µM.
`C[N+](C)(CF)CCOC(=O)[C@@H]1CCCN1` [Compound 5, N-(fluoromethyl)-N,N-dimethyl-2-(prolyloxy)ethan-1-aminium chloride hydrochloride] gave an IC50 of 0.0065 µM.
For `C[N+](C)(CF)CCOC(=O)[C@@H](N)Cc1ccccc1` [Compound 6, 2-((L-phenylalanyl)oxy)-N-(fluoromethyl)-N,N-dimethylethan-1-aminium dibromide], the IC50 was 0.018 µM.
